What was measured:
OVCAR-3 = test: Anticancer activity against human OVCAR-3 cells assessed as cell growth inhibition incubated for 48 hrs by SRB assay; type: functional
786-0 = test: Anticancer activity against human 786-0 cells assessed as total cell growth inhibition incubated for 48 hrs by SRB assay; type: functional
Hs-578T [1] = test: Anticancer activity against human Hs-578T cells assessed as cell growth inhibition incubated for 48 hrs by SRB assay; type: functional
NCI-H522 [2] = test: Anticancer activity against human NCI-H522 cells assessed as cell growth inhibition incubated for 48 hrs by SRB assay; type: functional
HL-60 = test: Anticancer activity against human HL-60 cells assessed as total cell growth inhibition incubated for 48 hrs by SRB assay; type: functional
NCI-H322M [3] = test: Anticancer activity against human NCI-H322M cells assessed as cell growth inhibition incubated for 48 hrs by SRB assay; type: functional
A549 = test: Anticancer activity against human A549 cells assessed as cell growth inhibition incubated for 48 hrs by SRB assay; type: functional
RXF 393 [4] = test: Anticancer activity against human RXF 393 cells assessed as total cell growth inhibition incubated for 48 hrs by SRB assay; type: functional
ACHN = test: Anticancer activity against human ACHN cells assessed as cell growth inhibition incubated for 48 hrs by SRB assay; type: functional
MDA-MB-231 = test: Anticancer activity against human MDA-MB-231 cells assessed as total cell growth inhibition incubated for 48 hrs by SRB assay; type: functional
SNB-75 = test: Anticancer activity against human SNB-75 cells assessed as total cell growth inhibition incubated for 48 hrs by SRB assay; type: functional
[5] = molecular target: Hepatocyte growth factor receptor (Homo sapiens) (UniProt P08581); test: Inhibition of MET (unknown origin) at 1 uM in presence of ATP by hotspot kinase assay
Chain of Hepatocyte growth factor receptor (Homo sapiens) (P08581 whole entry): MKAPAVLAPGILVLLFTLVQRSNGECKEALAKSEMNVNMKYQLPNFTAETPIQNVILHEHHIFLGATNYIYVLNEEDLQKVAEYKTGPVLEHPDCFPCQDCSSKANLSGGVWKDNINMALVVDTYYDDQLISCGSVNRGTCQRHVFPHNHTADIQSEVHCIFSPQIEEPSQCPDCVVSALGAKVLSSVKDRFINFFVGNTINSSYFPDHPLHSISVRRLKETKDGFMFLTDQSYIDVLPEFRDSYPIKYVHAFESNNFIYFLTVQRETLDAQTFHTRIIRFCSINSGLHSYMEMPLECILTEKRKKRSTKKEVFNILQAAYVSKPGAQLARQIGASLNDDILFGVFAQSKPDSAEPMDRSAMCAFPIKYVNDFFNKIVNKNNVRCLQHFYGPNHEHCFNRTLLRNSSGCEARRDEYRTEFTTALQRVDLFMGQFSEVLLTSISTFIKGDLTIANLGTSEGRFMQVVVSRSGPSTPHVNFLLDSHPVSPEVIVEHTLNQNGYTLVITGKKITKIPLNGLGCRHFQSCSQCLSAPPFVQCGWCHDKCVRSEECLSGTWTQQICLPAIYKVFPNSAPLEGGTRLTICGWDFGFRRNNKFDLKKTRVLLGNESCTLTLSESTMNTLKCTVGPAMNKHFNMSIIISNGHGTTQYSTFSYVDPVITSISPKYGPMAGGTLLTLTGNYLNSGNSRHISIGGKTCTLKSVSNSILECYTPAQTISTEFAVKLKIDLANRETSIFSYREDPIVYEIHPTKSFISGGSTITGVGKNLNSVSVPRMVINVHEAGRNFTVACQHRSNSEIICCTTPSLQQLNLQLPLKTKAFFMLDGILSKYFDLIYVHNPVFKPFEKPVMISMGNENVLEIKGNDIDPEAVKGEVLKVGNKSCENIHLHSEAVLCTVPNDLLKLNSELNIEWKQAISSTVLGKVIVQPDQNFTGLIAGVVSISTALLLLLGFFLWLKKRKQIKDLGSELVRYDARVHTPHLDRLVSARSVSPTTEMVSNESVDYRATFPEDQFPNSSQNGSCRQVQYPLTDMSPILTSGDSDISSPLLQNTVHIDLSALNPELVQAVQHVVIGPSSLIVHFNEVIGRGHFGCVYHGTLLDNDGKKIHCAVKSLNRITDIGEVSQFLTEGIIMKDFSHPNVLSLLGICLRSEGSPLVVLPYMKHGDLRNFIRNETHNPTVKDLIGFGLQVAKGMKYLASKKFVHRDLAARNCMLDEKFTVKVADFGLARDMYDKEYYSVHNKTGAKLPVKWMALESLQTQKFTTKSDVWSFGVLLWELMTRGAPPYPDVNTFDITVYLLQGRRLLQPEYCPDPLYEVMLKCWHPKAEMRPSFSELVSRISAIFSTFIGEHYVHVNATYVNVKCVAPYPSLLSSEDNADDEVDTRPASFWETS

SK-OV-3 = test: Anticancer activity against human SK-OV-3 cells assessed as total cell growth inhibition incubated for 48 hrs by SRB assay; type: functional
SNB-19 [6] = test: Anticancer activity against human SNB-19 cells assessed as cell growth inhibition incubated for 48 hrs by SRB assay; type: functional
OVCAR-8 = test: Anticancer activity against human OVCAR-8 cells assessed as total cell growth inhibition incubated for 48 hrs by SRB assay; type: functional
MCF7 [7] = test: Anticancer activity against human MCF7 cells assessed as cell growth inhibition incubated for 48 hrs by SRB assay; type: functional
[8] = n-Octanol/PBS partition coefficient, logD of the compound at pH 7.4; type: physicochemical
OVCAR-4 = test: Anticancer activity against human OVCAR-4 cells assessed as total cell growth inhibition incubated for 48 hrs by SRB assay; type: functional
[9] = Cytotoxicity against human WI-38 cells assessed as cell growth inhibition incubated for 48 hrs by SRB assay; type: toxicity, cell-based
M14 [10] = test: Anticancer activity against human M14 cells assessed as cell growth inhibition incubated for 48 hrs by SRB assay; type: functional
UACC-257 = test: Anticancer activity against human UACC-257 cells assessed as total cell growth inhibition incubated for 48 hrs by SRB assay; type: functional
MDA-MB-435 = test: Anticancer activity against human MDA-MB-435 cells assessed as cell growth inhibition incubated for 48 hrs by SRB assay; type: functional
[11] = molecular target: Serine/threonine-protein kinase B-raf (Homo sapiens) (UniProt P15056); test: Inhibition of wild type B-RAF (unknown origin) at 1 uM in presence of ATP by hotspot kinase assay
Chain of Serine/threonine-protein kinase B-raf (Homo sapiens) (P15056 whole entry): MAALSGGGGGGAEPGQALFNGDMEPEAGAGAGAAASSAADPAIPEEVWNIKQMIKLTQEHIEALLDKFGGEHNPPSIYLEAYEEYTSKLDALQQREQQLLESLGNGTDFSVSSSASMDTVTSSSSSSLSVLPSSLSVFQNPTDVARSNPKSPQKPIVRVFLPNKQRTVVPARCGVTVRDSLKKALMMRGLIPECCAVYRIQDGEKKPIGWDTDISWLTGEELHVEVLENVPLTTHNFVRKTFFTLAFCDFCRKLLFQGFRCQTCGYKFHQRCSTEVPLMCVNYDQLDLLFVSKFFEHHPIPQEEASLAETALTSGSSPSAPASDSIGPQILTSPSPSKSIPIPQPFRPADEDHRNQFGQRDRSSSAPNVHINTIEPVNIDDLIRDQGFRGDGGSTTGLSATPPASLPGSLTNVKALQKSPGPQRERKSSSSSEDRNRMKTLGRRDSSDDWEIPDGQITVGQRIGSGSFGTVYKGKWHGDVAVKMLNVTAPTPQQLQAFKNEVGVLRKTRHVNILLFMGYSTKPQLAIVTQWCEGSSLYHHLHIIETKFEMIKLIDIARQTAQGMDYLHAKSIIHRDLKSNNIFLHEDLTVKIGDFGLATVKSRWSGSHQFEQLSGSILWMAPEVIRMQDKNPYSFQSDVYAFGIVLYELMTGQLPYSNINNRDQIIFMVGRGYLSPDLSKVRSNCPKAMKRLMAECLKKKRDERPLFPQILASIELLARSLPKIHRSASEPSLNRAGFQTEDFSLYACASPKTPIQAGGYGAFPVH

NCI-H322M [12] = test: Anticancer activity against human NCI-H322M cells assessed as total cell growth inhibition incubated for 48 hrs by SRB assay; type: functional
MCF7 [13] = test: Anticancer activity against human MCF7 cells assessed as total cell growth inhibition incubated for 48 hrs by SRB assay; type: functional
HT-29 = test: Anticancer activity against human HT-29 cells assessed as total cell growth inhibition incubated for 48 hrs by SRB assay; type: functional
M14 [14] = test: Anticancer activity against human M14 cells assessed as total cell growth inhibition incubated for 48 hrs by SRB assay; type: functional
UACC-62 = test: Anticancer activity against human UACC-62 cells assessed as cell growth inhibition incubated for 48 hrs by SRB assay; type: functional
T47D = test: Anticancer activity against human T47D cells assessed as cell growth inhibition incubated for 48 hrs by SRB assay; type: functional
CAKI-1 = test: Anticancer activity against human CAKI-1 cells assessed as cell growth inhibition incubated for 48 hrs by SRB assay; type: functional
MOLT-4 = test: Anticancer activity against human MOLT-4 cells assessed as cell growth inhibition incubated for 48 hrs by SRB assay; type: functional
SF-268 = test: Anticancer activity against human SF-268 cells assessed as cell growth inhibition incubated for 48 hrs by SRB assay; type: functional
MDA-MB-468 = test: Anticancer activity against human MDA-MB-468 cells assessed as cell growth inhibition incubated for 48 hrs by SRB assay; type: functional
SF-295 = test: Anticancer activity against human SF-295 cells assessed as cell growth inhibition incubated for 48 hrs by SRB assay; type: functional
Hs-578T [15] = test: Anticancer activity against human Hs-578T cells assessed as total cell growth inhibition incubated for 48 hrs by SRB assay; type: functional
SNB-19 [16] = test: Anticancer activity against human SNB-19 cells assessed as total cell growth inhibition incubated for 48 hrs by SRB assay; type: functional
LOX IMVI = test: Anticancer activity against human LOX IMVI cells assessed as cell growth inhibition incubated for 48 hrs by SRB assay; type: functional
SK-MEL-2 = test: Anticancer activity against human SK-MEL-2 cells assessed as cell growth inhibition incubated for 48 hrs by SRB assay; type: functional
SN12C = test: Anticancer activity against human SN12C cells assessed as total cell growth inhibition incubated for 48 hrs by SRB assay; type: functional
SW-620 = test: Anticancer activity against human SW-620 cells assessed as total cell growth inhibition incubated for 48 hrs by SRB assay; type: functional
K562 = test: Anticancer activity against human K562 cells assessed as cell growth inhibition incubated for 48 hrs by SRB assay; type: functional
NCI-H226 = test: Anticancer activity against human NCI-H226 cells assessed as cell growth inhibition incubated for 48 hrs by SRB assay; type: functional
KM12 = test: Anticancer activity against human KM12 cells assessed as cell growth inhibition incubated for 48 hrs by SRB assay; type: functional
NCI-H522 [17] = test: Anticancer activity against human NCI-H522 cells assessed as total cell growth inhibition incubated for 48 hrs by SRB assay; type: functional
CCRF-CEM = test: Anticancer activity against human CCRF-CEM cells assessed as total cell growth inhibition incubated for 48 hrs by SRB assay; type: functional
NCI-H460 = test: Anticancer activity against human NCI-H460 cells assessed as cell growth inhibition incubated for 48 hrs by SRB assay; type: functional
EKVX = test: Anticancer activity against human EKVX cells assessed as total cell growth inhibition incubated for 48 hrs by SRB assay; type: functional
RXF 393 [18] = test: Anticancer activity against human RXF 393 cells assessed as cell growth inhibition incubated for 48 hrs by SRB assay; type: functional
IGROV-1 = test: Anticancer activity against human IGROV-1 cells assessed as total cell growth inhibition incubated for 48 hrs by SRB assay; type: functional

## COc1cc2cc(Oc3ccc(NC(=O)Nc4cc(C(F)(F)F)cc(C(F)(F)F)c4)cc3)c(C)nc2cc1OCCN1CCOCC1
OVCAR-3
  GI50: 1430 nM
786-0
  TGI: 3650 nM
Hs-578T [1]
  GI50: 1560 nM
NCI-H522 [2]
  GI50: 1630 nM
HL-60
  TGI: 4930 nM
NCI-H322M [3]
  GI50: 1820 nM
A549
  GI50: 1720 nM
RXF 393 [4]
  TGI: 2990 nM
ACHN
  GI50: 1530 nM
MDA-MB-231
  TGI: 6450 nM
SNB-75
  TGI: 4480 nM
[5]
  inhibition: 1.04%
SK-OV-3
  TGI: 8500 nM
SNB-19 [6]
  GI50: 1880 nM
OVCAR-8
  TGI: 12800 nM
MCF7 [7]
  GI50: 1430 nM
[8]
  logD: 2.91
OVCAR-4
  TGI: 6950 nM
[9]
  GI50 at 48 h: > 20000 nM
M14 [10]
  GI50: 1510 nM
UACC-257
  TGI: 4240 nM
MDA-MB-435
  GI50: 1900 nM
[11]
  inhibition: 26.5%
NCI-H322M [12]
  TGI: 6870 nM
MCF7 [13]
  TGI: 3910 nM
HT-29
  TGI: 7140 nM
M14 [14]
  TGI: 5880 nM
UACC-62
  GI50: 1670 nM
T47D
  GI50: 2040 nM
CAKI-1
  GI50: 1470 nM
MOLT-4
  GI50: 1320 nM
SF-268
  GI50: 1980 nM
MDA-MB-468
  GI50: 1220 nM
SF-295
  GI50: 1140 nM
Hs-578T [15]
  TGI: 7000 nM
SNB-19 [16]
  TGI: 7420 nM
LOX IMVI
  GI50: 1460 nM
SK-MEL-2
  GI50: 1740 nM
SN12C
  TGI: 5480 nM
SW-620
  TGI: 7170 nM
K562
  GI50: 1410 nM
NCI-H226
  GI50: 1600 nM
KM12
  GI50: 1530 nM
NCI-H522 [17]
  TGI: 7290 nM
CCRF-CEM
  TGI: 6570 nM
NCI-H460
  GI50: 1660 nM
EKVX
  TGI: 6680 nM
RXF 393 [18]
  GI50: 1120 nM
IGROV-1
  TGI: 6900 nM

## COc1cc2cc(Oc3ccc(NC(=O)Nc4ccc(Cl)c(C(F)(F)F)c4)cc3)c(C)nc2cc1OCCN1CCOCC1
OVCAR-3
  GI50: 1520 nM
786-0
  TGI: 4150 nM
Hs-578T [1]
  GI50: 1830 nM
NCI-H522 [2]
  GI50: 1430 nM
HL-60
  TGI: 7560 nM
NCI-H322M [3]
  GI50: 2820 nM
A549
  GI50: 2130 nM
RXF 393 [4]
  TGI: 3990 nM
ACHN
  GI50: 2030 nM
MDA-MB-231
  TGI: 5070 nM
SNB-75
  TGI: 7050 nM
[5]
  inhibition: 4.3%
SK-OV-3
  TGI: 17500 nM
SNB-19 [6]
  GI50: 3230 nM
OVCAR-8
  TGI: > 100000 nM
MCF7 [7]
  GI50: 1260 nM
[8]
  logD: 2.73
OVCAR-4
  TGI: 3410 nM
[9]
  GI50 at 48 h: > 20000 nM
M14 [10]
  GI50: 1520 nM
UACC-257
  TGI: 4550 nM
MDA-MB-435
  GI50: 1940 nM
[11]
  inhibition: 31.6%
NCI-H322M [12]
  TGI: 11200 nM
MCF7 [13]
  TGI: 3330 nM
HT-29
  TGI: 11200 nM
M14 [14]
  TGI: 3450 nM
UACC-62
  GI50: 1360 nM
T47D
  GI50: 1320 nM
CAKI-1
  GI50: 1800 nM
MOLT-4
  GI50: 1480 nM
SF-268
  GI50: 2590 nM
MDA-MB-468
  GI50: 470 nM
SF-295
  GI50: 1190 nM
Hs-578T [15]
  TGI: 5110 nM
SNB-19 [16]
  TGI: 19800 nM
LOX IMVI
  GI50: 1390 nM
SK-MEL-2
  GI50: 1650 nM
SN12C
  TGI: 56200 nM
SW-620
  TGI: 5520 nM
K562
  GI50: 670 nM
NCI-H226
  GI50: 1860 nM
KM12
  GI50: 5300 nM
NCI-H522 [17]
  TGI: 4070 nM
CCRF-CEM
  TGI: > 100000 nM
NCI-H460
  GI50: 1650 nM
EKVX
  TGI: 13700 nM
RXF 393 [18]
  GI50: 1770 nM
IGROV-1
  TGI: 23200 nM

## COc1cc2cc(Oc3ccc(NC(=O)Nc4ccc(F)c(C(F)(F)F)c4)cc3)c(C)nc2cc1OCCN1CCOCC1
OVCAR-3
  GI50: 2940 nM
786-0
  TGI: 3440 nM
Hs-578T [1]
  GI50: 2120 nM
NCI-H522 [2]
  GI50: 2040 nM
HL-60
  TGI: 6140 nM
NCI-H322M [3]
  GI50: 3370 nM
A549
  GI50: 2570 nM
RXF 393 [4]
  TGI: 3940 nM
ACHN
  GI50: 2300 nM
MDA-MB-231
  TGI: 9020 nM
SNB-75
  TGI: 7450 nM
[5]
  inhibition: 3.05%
SK-OV-3
  TGI: 26700 nM
SNB-19 [6]
  GI50: 3960 nM
OVCAR-8
  TGI: > 100000 nM
MCF7 [7]
  GI50: 1460 nM
[8]
  logD: 2.54
OVCAR-4
  TGI: 5230 nM
[9]
  GI50 at 48 h: > 20000 nM
M14 [10]
  GI50: 1530 nM
UACC-257
  TGI: 5180 nM
MDA-MB-435
  GI50: 1910 nM
[11]
  inhibition: 23.7%
NCI-H322M [12]
  TGI: 13600 nM
MCF7 [13]
  TGI: 3480 nM
HT-29
  TGI: 21800 nM
M14 [14]
  TGI: 3310 nM
UACC-62
  GI50: 1360 nM
T47D
  GI50: 1910 nM
CAKI-1
  GI50: 2060 nM
MOLT-4
  GI50: 1860 nM
SF-268
  GI50: 3660 nM
MDA-MB-468
  GI50: 450 nM
SF-295
  GI50: 1350 nM
Hs-578T [15]
  TGI: 8900 nM
SNB-19 [16]
  TGI: 19300 nM
LOX IMVI
  GI50: 1440 nM
SK-MEL-2
  GI50: 2380 nM
SN12C
  TGI: 15500 nM
SW-620
  TGI: 9860 nM
K562
  GI50: 880 nM
NCI-H226
  GI50: 2550 nM
KM12
  GI50: 2690 nM
NCI-H522 [17]
  TGI: 9430 nM
CCRF-CEM
  TGI: 11500 nM
NCI-H460
  GI50: 1960 nM
EKVX
  TGI: 20700 nM
RXF 393 [18]
  GI50: 1780 nM
IGROV-1
  TGI: 19500 nM

— ChEMBL document CHEMBL5113398, “Design and synthesis of new quinoline derivatives as selective C-RAF kinase inhibitors with potent anticancer activity” (Eur J Med Chem, 2022)
